This is an account of results in PubChem BioAssay AID256 (DTP/NCI, 2004).

“And” between values parts separate entries of the source, which are not always exact repeats. Identical values can stand only once. Inconclusive results and toxic doses are left out.

This experiment deals with CD2F1 mice, L1210 leukemia ip, survival T/C. The experiment is described as follows: NCI In Vivo Anticancer Drug Screen. Data for tumor model L1210 Leukemia (intraperitoneal) in CD2F1 (CDF1) mice. The note with it: higher = longer survival. The method in brief:
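Mice carrying a transplanted tumor received test compound or vehicle alone. The value is the measurement in the treated group divided by that in the vehicle-treated control group.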

The mark [1] stands for this setting: endpoint: mean survival time, dose: 12.5 mg/kg/injection, schedule: Q01DX009 (ip), vehicle: saline with Tween-80.
The mark [2] stands for this setting: endpoint: mean survival time, dose: 25.0 mg/kg/injection, schedule: Q01DX009 (ip), vehicle: saline with Tween-80.
[3] abbreviates: endpoint: mean survival time, dose: 50.0 mg/kg/injection, schedule: Q01DX009 (ip), vehicle: saline with Tween-80.
The mark [4] stands for this setting: endpoint: mean survival time, dose: 100.0 mg/kg/injection, schedule: Q01DX009 (ip), vehicle: saline with Tween-80.
Setting [5] is: endpoint: mean survival time, dose: 200.0 mg/kg/injection, schedule: Q01DX009 (ip), vehicle: saline with Tween-80.
[6] abbreviates: endpoint: mean survival time, dose: 100.0 mg/kg/injection, schedule: Q01DX001 (ip), vehicle: saline with Tween-80.
The mark [7] stands for this setting: endpoint: mean survival time, dose: 200.0 mg/kg/injection, schedule: Q01DX001 (ip), vehicle: saline with Tween-80.
The mark [8] stands for this setting: endpoint: mean survival time, dose: 100.0 mg/kg/injection, schedule: Q04DX003 (ip), vehicle: saline with Tween-80.
Where [9] appears, read: endpoint: mean survival time, dose: 200.0 mg/kg/injection, schedule: Q04DX003 (ip), vehicle: saline with Tween-80.
[10] abbreviates: endpoint: mean survival time, dose: 400.0 mg/kg/injection, schedule: Q04DX003 (ip), vehicle: saline with Tween-80.
Where [11] appears, read: endpoint: mean survival time, dose: 400.0 mg/kg/injection, schedule: Q01DX009 (ip), vehicle: saline with Tween-80.

Consider `CC1(CO)C(O)CCC2(C)C1CCC1CC3CC12CCC3(O)CO` (stereo not drawn), for which the T/C (endpoint: mean survival time, dose: 6.25 mg/kg/injection, schedule: Q01DX009 (ip), vehicle: saline with Tween-80) was 119 % of control and 102 % of control; the T/C under setting [1] is 106 % of control and 109 % of control; the T/C under setting [2] was 110 % of control and 111 % of control; the T/C under setting [3] was 118 % of control and 111 % of control; the T/C under setting [4] was 121 % of control and 122 % of control; the T/C under setting [5] is 114 % of control and 102 % of control.

On to `CN(C)C=Nc1cccc2[nH]c3ccccc3c12`, for which the T/C by setting is: under setting [1], 92 % of control; under setting [2], 104 % of control; under setting [3], 97 % of control; under setting [6], 92 % of control; under setting [4], 103 % of control; under setting [7], 101 % of control.

Turning to `CC(OC(=O)c1ccc([N+](=O)[O-])cc1)C(C)(C)C` (stereo not drawn), the T/C by setting is: (endpoint: mean survival time, dose: 100.0 mg/kg/injection, schedule: Q01DX001 (ip), vehicle: saline) 98 % of control; (endpoint: mean survival time, dose: 200.0 mg/kg/injection, schedule: Q01DX001 (ip), vehicle: saline) 100 % of control; (endpoint: mean survival time, dose: 400.0 mg/kg/injection, schedule: Q01DX001 (ip), vehicle: saline) 96 % of control.

Turning to `CC1=C2CC3CCC(C)C2(CC1)C3(C)C` (stereo not drawn), the T/C is 111 % of control (endpoint: mean survival time, dose: 100.0 mg/kg/injection, schedule: Q04DX002 (ip), vehicle: Klucel (hydroxypropylcellulose) (HPC)); 96 % of control (endpoint: mean survival time, dose: 100.0 mg/kg/injection, schedule: Q04DX003 (ip), vehicle: saline); 96 % of control (endpoint: mean survival time, dose: 200.0 mg/kg/injection, schedule: Q04DX002 (ip), vehicle: Klucel (hydroxypropylcellulose) (HPC)); 98 % of control (endpoint: mean survival time, dose: 200.0 mg/kg/injection, schedule: Q04DX003 (ip), vehicle: saline); 96 % of control (endpoint: mean survival time, dose: 400.0 mg/kg/injection, schedule: Q04DX002 (ip), vehicle: Klucel (hydroxypropylcellulose) (HPC)); 106 % of control (endpoint: mean survival time, dose: 400.0 mg/kg/injection, schedule: Q04DX003 (ip), vehicle: saline).

For the molecule `O=c1c2ccccc2nc2c3ccccc3nnn12`, the T/C (endpoint: mean survival time, dose: 50.0 mg/kg/injection, schedule: Q04DX002 (ip), vehicle: saline with Tween-80) is 98 % of control; the T/C (endpoint: mean survival time, dose: 100.0 mg/kg/injection, schedule: Q04DX002 (ip), vehicle: saline with Tween-80) is 120 % of control; the T/C (endpoint: mean survival time, dose: 200.0 mg/kg/injection, schedule: Q04DX002 (ip), vehicle: saline with Tween-80) is 91 % of control.

For `CSc1nc(NC2OC(CO)C(O)C(O)C2O)c(Br)c(=O)n1C` (stereo not drawn), the T/C was 98 % of control (endpoint: median survival time, dose: 12.5 mg/kg/injection, schedule: Q01DX005 (ip), vehicle: saline with Tween-80); 100 % of control (endpoint: median survival time, dose: 25.0 mg/kg/injection, schedule: Q01DX005 (ip), vehicle: saline with Tween-80); 96 % of control (endpoint: median survival time, dose: 50.0 mg/kg/injection, schedule: Q01DX005 (ip), vehicle: saline with Tween-80); 101 % of control (endpoint: median survival time, dose: 100.0 mg/kg/injection, schedule: Q01DX005 (ip), vehicle: saline with Tween-80).

Turning to `CCC(C(C)N1CC(=O)NC(=O)C1)N1CC(=O)NC(=O)C1` (stereo not drawn), the T/C is 109 % of control (endpoint: mean survival time, dose: 0.06 mg/kg/injection, schedule: Q01DX009 (ip), vehicle: Klucel (hydroxypropylcellulose) (HPC)); 114 % of control (endpoint: mean survival time, dose: 0.13 mg/kg/injection, schedule: Q01DX009 (ip), vehicle: Klucel (hydroxypropylcellulose) (HPC)); 119 % of control (endpoint: mean survival time, dose: 0.5 mg/kg/injection, schedule: Q04DX003 (ip), vehicle: Klucel (hydroxypropylcellulose) (HPC)); 120 % of control (endpoint: mean survival time, dose: 1.0 mg/kg/injection, schedule: Q01DX009 (ip), vehicle: Klucel (hydroxypropylcellulose) (HPC)); 154 % of control (endpoint: mean survival time, dose: 1.0 mg/kg/injection, schedule: Q04DX003 (ip), vehicle: Klucel (hydroxypropylcellulose) (HPC)); 89 % of control (endpoint: mean survival time, dose: 2.0 mg/kg/injection, schedule: Q01DX009 (ip), vehicle: Klucel (hydroxypropylcellulose) (HPC)). The T/C is, setting by setting: (endpoint: mean survival time, dose: 2.0 mg/kg/injection, schedule: Q04DX003 (ip), vehicle: Klucel (hydroxypropylcellulose) (HPC)) 178 % of control; (endpoint: mean survival time, dose: 4.0 mg/kg/injection, schedule: Q04DX003 (ip), vehicle: Klucel (hydroxypropylcellulose) (HPC)) 167 % of control; (endpoint: mean survival time, dose: 8.0 mg/kg/injection, schedule: Q04DX003 (ip), vehicle: Klucel (hydroxypropylcellulose) (HPC)) 100 % of control.

On to `O=[N+]([O-])c1ccc(S(=O)(=O)c2ccc([N+](=O)[O-])cc2)cc1`, for which the T/C was 93 % of control under setting [3], 93 % of control under setting [4] and 93 % of control under setting [5].

As to `CC(=O)OCC(OC(C)=O)C(OC(C)=O)C(OC(C)=O)C(COC(=O)c1ccccc1)OC(=O)c1ccccc1` (stereo not drawn), the T/C under setting [6] is 96 % of control; the T/C under setting [7] is 100 % of control; the T/C (endpoint: mean survival time, dose: 400.0 mg/kg/injection, schedule: Q01DX001 (ip), vehicle: saline with Tween-80) is 96 % of control.

In the case of `O=C(Nc1ccccc1)OC1CCCCC1`, the T/C was 101 % of control under setting [8], 100 % of control under setting [9] and 97 % of control under setting [10].

In the case of `CCOC(=O)C1SCSCC1=O` (stereo not drawn), the T/C is, setting by setting: under setting [4], 101 % of control; under setting [5], 101 % of control; under setting [11], 98 % of control.

Regarding `CCSC(C)C`, the T/C by setting is: (endpoint: mean survival time, dose: 100.0 mg/kg/injection, schedule: Q01DX009 (ip), vehicle: saline) 101 % of control; (endpoint: mean survival time, dose: 200.0 mg/kg/injection, schedule: Q01DX009 (ip), vehicle: saline) 96 % of control; (endpoint: mean survival time, dose: 400.0 mg/kg/injection, schedule: Q01DX009 (ip), vehicle: saline) 98 % of control.

Regarding `Cc1ccc(S(=O)(=O)OCC(OS(=O)(=O)c2ccc(C)cc2)C2OC(c3ccccc3)OC2C2COC(c3ccccc3)O2)cc1` (stereo not drawn), the T/C runs as follows: under setting [4], 95 % of control; under setting [5], 95 % of control; under setting [11], 95 % of control.

For the molecule `COB(C1CCCCC1)C1CCCCC1`, the T/C is, setting by setting: (endpoint: mean survival time, dose: 100.0 mg/kg/injection, schedule: Q01DX009 (ip), vehicle: other) 91 % of control; (endpoint: mean survival time, dose: 200.0 mg/kg/injection, schedule: Q01DX009 (ip), vehicle: other) 88 % of control.

In the case of `O=C(O)CCC(NC(=O)c1ccccc1)C(=O)O` (stereo not drawn), the T/C is 96 % of control (endpoint: mean survival time, dose: 100.0 mg/kg/injection, schedule: Q01DX001 (ip), vehicle: Klucel (hydroxypropylcellulose) (HPC)); 96 % of control (endpoint: mean survival time, dose: 200.0 mg/kg/injection, schedule: Q01DX001 (ip), vehicle: Klucel (hydroxypropylcellulose) (HPC)); 100 % of control (endpoint: mean survival time, dose: 400.0 mg/kg/injection, schedule: Q01DX001 (ip), vehicle: Klucel (hydroxypropylcellulose) (HPC)).

Turning to `Cc1ccc2c([N+](=O)[O-])cccc2n1`, the T/C runs as follows: under setting [2], 93 % of control; under setting [3], 96 % of control; under setting [4], 104 % of control.

On to `[CH3][Sn]([CH3])([Br])[CH2]CCBr`, for which the T/C by setting is: (endpoint: mean survival time, dose: 0.39 mg/kg/injection, schedule: Q01DX009 (ip), vehicle: saline with Tween-80) 100 % of control; (endpoint: mean survival time, dose: 0.39 mg/kg/injection, schedule: Q01DX009 (ip), vehicle: saline) 90 % of control; (endpoint: mean survival time, dose: 0.78 mg/kg/injection, schedule: Q01DX009 (ip), vehicle: saline with Tween-80) 100 % of control; (endpoint: mean survival time, dose: 0.78 mg/kg/injection, schedule: Q01DX009 (ip), vehicle: saline) 90 % of control; (endpoint: mean survival time, dose: 1.56 mg/kg/injection, schedule: Q01DX009 (ip), vehicle: saline) 97 % of control.

`CCOC(=O)c1c2c(n3ccccc13)C(=O)c1ccccc1C2=O`: the T/C reads like this: (endpoint: mean survival time, dose: 75.0 mg/kg/injection, schedule: Q01DX001 (ip), vehicle: saline) 97 % of control; (endpoint: mean survival time, dose: 150.0 mg/kg/injection, schedule: Q01DX001 (ip), vehicle: saline) 103 % of control; (endpoint: mean survival time, dose: 300.0 mg/kg/injection, schedule: Q01DX001 (ip), vehicle: saline) 105 % of control.

For `COC(=O)C1(C)CCCC2(C)C1CCC13OC1C(C(C)C)=CCC23` (stereo not drawn), the T/C under setting [4] is 104 % of control, the T/C under setting [5] is 97 % of control and the T/C under setting [11] is 101 % of control.

Take `O=Nn1c2ccccc2c2ccccc21`: the T/C was 90 % of control (endpoint: mean survival time, dose: 50.0 mg/kg/injection, schedule: Q01DX009 (ip), vehicle: Klucel (hydroxypropylcellulose) (HPC)); 98 % of control (endpoint: mean survival time, dose: 100.0 mg/kg/injection, schedule: Q01DX009 (ip), vehicle: Klucel (hydroxypropylcellulose) (HPC)); 102 % of control (endpoint: mean survival time, dose: 200.0 mg/kg/injection, schedule: Q01DX009 (ip), vehicle: Klucel (hydroxypropylcellulose) (HPC)).

For the molecule `COc1ccc(OC)c(/C=C/c2ccc3ccccc3n2)c1`, the T/C was 110 % of control under setting [4]; 104 % of control under setting [8]; 98 % of control under setting [5]; 104 % of control under setting [9]; 106 % of control under setting [11]; 108 % of control under setting [10].
